“And” between values parts separate entries of the source, which are not always exact repeats. Identical values can stand only once. Inconclusive results and toxic doses are left out. Rule as the data show it: active = T/C of 150% or more; inactive = T/C below 125%.
Tested on: L1210 leukemia ip in BDF1 mice, survival T/C
Experiment: NCI In Vivo Anticancer Drug Screen. Data for tumor model L1210 Leukemia (intraperitoneal) in B6D2F1 (BDF1) mice
Settings: endpoint: mean survival time, higher = longer survival
Method in brief: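 Survival endpoint. Drug-treated group vs vehicle group, expressed as T divided by C. Tumor passaged by transplantation.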

[1] = dose: 50.0 mg/kg/injection, schedule: Q01DX009 (ip), vehicle: saline
[2] = dose: 100.0 mg/kg/injection, schedule: Q04DX003 (ip), vehicle: saline
[3] = dose: 100.0 mg/kg/injection, schedule: Q04DX003 (ip), vehicle: Klucel (hydroxypropylcellulose) (HPC)
[4] = dose: 200.0 mg/kg/injection, schedule: Q04DX003 (ip), vehicle: Klucel (hydroxypropylcellulose) (HPC)
[5] = dose: 100.0 mg/kg/injection, schedule: Q01DX001 (ip), vehicle: saline
[6] = dose: 200.0 mg/kg/injection, schedule: Q01DX001 (ip), vehicle: saline
[7] = dose: 400.0 mg/kg/injection, schedule: Q01DX001 (ip), vehicle: saline
[8] = dose: 100.0 mg/kg/injection, schedule: Q01DX009 (ip), vehicle: saline

Measured: T/C

CC1(Cl)C(=O)NC(=O)C1Cl (configuration not stated)
inactive: dose: 3.12 mg/kg/injection, schedule: Q01DX009 (ip), vehicle: saline 92 % of control | dose: 6.25 mg/kg/injection, schedule: Q01DX009 (ip), vehicle: saline 87 % of control | dose: 25.0 mg/kg/injection, schedule: Q01DX009 (ip), vehicle: saline 87 % of control | dose: 25.0 mg/kg/injection, schedule: Q04DX003 (ip), vehicle: saline 103 % of control | [1] 92 % of control | dose: 50.0 mg/kg/injection, schedule: Q04DX003 (ip), vehicle: saline 97 % of control | [2] 110 % of control

O=[N+]([O-])c1ccc(Cl)c(OCCCCOc2ccc(S(=O)(=O)F)cc2)c1
inactive: [3] 90 % of control | [4] 94 % of control

CC1(C)N=C(N)N=C(N)N1c1ccc(OCC(=O)Nc2cccc(S(=O)(=O)F)c2)cc1
inactive: [5] 105 % of control | [6] 91 % of control | [7] 107 % of control

Cc1cccc(NC(=O)CSc2ccc(Cl)cc2)c1
inactive: dose: 100.0 mg/kg/injection, schedule: Q04DX002 (sc), vehicle: olive oil, sesame oil, peanut oil 100 % of control | dose: 200.0 mg/kg/injection, schedule: Q04DX002 (sc), vehicle: olive oil, sesame oil, peanut oil 106 % of control | dose: 400.0 mg/kg/injection, schedule: Q04DX002 (sc), vehicle: olive oil, sesame oil, peanut oil 89 % of control

CC12CCC(C(Br)C1=O)C2(C)CS(=O)(=O)O (configuration not stated)
inactive: [5] 104 % of control and 101 % of control | [8] 89 % of control | [2] 95 % of control | [6] 93 % of control and 104 % of control | dose: 200.0 mg/kg/injection, schedule: Q01DX009 (ip), vehicle: saline 97 % of control | dose: 200.0 mg/kg/injection, schedule: Q04DX003 (ip), vehicle: saline 97 % of control | [7] 104 % of control | dose: 400.0 mg/kg/injection, schedule: Q01DX009 (ip), vehicle: saline 92 % of control | dose: 400.0 mg/kg/injection, schedule: Q04DX003 (ip), vehicle: saline 95 % of control

COc1cc2c(cc1OC)C(=O)CC2
inactive: dose: 50.0 mg/kg/injection, schedule: Q01DX001 (ip), vehicle: other 91 % of control | dose: 100.0 mg/kg/injection, schedule: Q01DX001 (ip), vehicle: other 98 % of control | dose: 200.0 mg/kg/injection, schedule: Q01DX001 (ip), vehicle: other 98 % of control | dose: 400.0 mg/kg/injection, schedule: Q01DX001 (ip), vehicle: other 96 % of control

O=[n+]1ccn2ccccc2c1
inactive: [1] 100 % of control | [8] 102 % of control | [3] 98 % of control | [4] 104 % of control
